System: HepG2 cells
Assay: MTS assay for cell viability / cytotoxicity in HepG2 cells
Format: cell-based
Conditions: Homo sapiens; HepG2 cells after 48 h, without thermal activation; read-out: IC50 μg PTX/ml
Method: HepG2 liver cancer cell line and J774 murine macrophage cells (provided by Prof. Colby Shad Thaxton, Department of Urology, Feinberg School of Medicine, Northwestern University) were grown in RPMI-1640 medium containing 10% FBS and penicillin/streptomycin (100 units/mL and 100 μg/mL, respectively). The cells were cultured at 37° C. with 5% CO2 atmosphere in T75 flasks.
The biocompatibility of the MLCCs and cytotoxicity was tested using MTS (3-(4,5-dimethylthiazol-2-yl)-5-(3-carboxymethoxyphenyl)-2-(4-sulfophenyl)-2H-tetrazolium) assay. Briefly, J774 and HepG2 cells were plated at 1×10^5 cells per well in 24-well plate with 70-80% of confluency. […] To compare the effect of drug loaded MLCCs with native drug, Cells were also treated with different concentration of native drug (similar to amount of drug entrapped within the MLCCs as calculated from measurement via HPLC). […] MTS assay was used to quantify the cell viability according to the protocol provided by the manufacture (CellTiter 96 Aqueous One Solution Cell Proliferation Assay; Promega). The optical densities were recorded at 490 nm and 700 nm using BioTek Synergy™ 4 Hybrid Microplate Reader. The background absorbance at 700 nm was subtracted from absorbance at 490 nm. […] The IC50 values were calculated by nonlinear curve fit using dose response-inhibition equation with Graphpad Prism 5.0. […]

`CC(=O)O[C@H]1C(=O)[C@@]2(C)[C@H]([C@H](OC(=O)c3ccccc3)[C@]3(O)C[C@H](OC(=O)[C@H](O)[C@@H](NC(=O)c4ccccc4)c4ccccc4)C(C)=C1C3(C)C)[C@]1(OC(C)=O)CO[C@@H]1C[C@@H]2O` [PTX, paclitaxel] was tested, and the IC50 was 0.63 µg/mL.

Source: patent publication US11510872B2, “Nanoparticle-lipid composite carriers and uses thereof” (Northwestern University, priority 2017, dated 2022)
